Experimental data from patent US11786534B2 (TAIHO PHARMACEUTICAL CO., LTD., priority 2019, dated 2023).
pIC50: −log10 of the molar value.

What was measured:
[1] = molecular target: Ba/F3-EGFR (d746-750/T790M/C797S) (Homo sapiens, UniProt P00533, DEL746-750/T790M/C797S, cells depend on it); assay: Growth inhibition of cell line expressing EGFR (d746-750/T790M/C797S); assay type: cell-based, mouse; conditions: Test Example 4, Table 13; same procedures as Test Example 2; read-out: BaF3_EGFR (d746-750/T790M/C797S) IC50 value
From the text: (§1) Test for inhibitory activity against the growth of cell lines expressing wild-type and mutated EGFRs (in vitro)
(§2) (1) Mouse cell line Ba/F3-EGFR (d746-750/T790M/C797S) transfected with and stably expressing EGFR (d746-750/T790M/C797S), mouse cell Ba/F3-EGFR (L858R/T790M/C797S) transfected with and stably expressing EGFR (L858R/T790M/C797S), and mouse cell line Ba/F3-EGFR (WT) transfected with and stably expressing wild-type EGFR were each suspended in RPMI-1640 cell culture medium (RPMI-1640, 10% FBS, 100 unit/ml penicillin, 0.1 mg/ml streptomycin). In the case of the mouse cell line Ba/F3-EGFR (WT), RPMI-1640 cell culture medium containing EGF at a final concentration of 50 ng/ml was used to suspend this cell line. It should be noted that the mouse cell line Ba/F3-EGFR (d746-750/T790M/C797S) transfected with and stably expressing EGFR (d746-750/T790M/C797S), the mouse cell line Ba/F3-EGFR (L858R/T790M/C797S) transfected with and stably expressing EGFR (L858R/T790M/C797S) and the mouse cell line Ba/F3-EGFR (WT) transfected with and stably expressing wild-type EGFR were prepared by using nucleotide sequences encoding the proteins of SEQ ID NOs: 1 and 2 in accordance with Test Example 1 in WO2018/079310, These cell suspensions were seeded in wells of 96-well flat -bottomed plates. The compounds of the present invention were dissolved in DMSO, and serial dilutions of these test compounds were prepared with DMSO (1000-fold of the final concentration). Each test compound solution in DMSO or DMSO alone was diluted with RPMI-1640 cell culture medium for each cell line, and this dilution was added to wells of the cell culture plate such that the final concentration of DMSO was 0.1%, followed by culture at 37° C. for 3 days in a 5% carbon dioxide gas-containing incubator. Before and after addition of each test compound solution in DMSO, the number of cells was counted using the CellTiter-Glo® system (Promega) on the basis of the protocol recommended by Promega.
(§3) In each cell line, the rate of cell growth inhibition was calculated according to the equation shown below in wells to which each test compound was added at different concentrations. Moreover, the inhibition rate at each concentration was plotted for each test compound, and the concentration of each test compound required to give 50% cell survival rate, i.e., IC50 (nM) was determined by curve fitting software XLfit (IDBS).
(§4) Cell survival rate (%)=T/C×100
(§5) T: emission intensity in a well cultured for 3 days after addition of a test compound solution
(§6) C: emission intensity in a well cultured for 3 days after addition of DMSO
(§7) In accordance with the same procedures as shown in Test Example 2, the compounds of the present invention were tested for their inhibitory activity against the growth of the cell hoes expressing wild-type and mutated EGFRs.

[2] = molecular target: Ba/F3-EGFR (WT) (Homo sapiens, UniProt P00533); assay: Growth inhibition of cell line expressing wild-type EGFR; assay type: cell-based, mouse; conditions: Test Example 4, Table 13; same procedures as Test Example 2; read-out: BaF3_EGFR (WT) IC50 value
From the text: as §1, §2, §3, §4, §5, §6, §7

[3] = molecular target: Ba/F3-EGFR (L858R/T790M/C797S) (Homo sapiens, UniProt P00533, T790M/C797S/L858R, cells depend on it); assay: Growth inhibition of cell line expressing EGFR (L858R/T790M/C797S); assay type: cell-based, mouse; conditions: Test Example 4, Table 13; same procedures as Test Example 2; read-out: BaF3_EGFR (L858R/T790M/C797S) IC50 value
From the text: as §1, §2, §3, §4, §5, §6, §7

[4] = molecular target: T1, human EGFR (d746-750/C797S) (Homo sapiens, UniProt P00533, C797S/DEL746-750); assay: Inhibitory activity against EGFR (d746-750/C797S) kinase; assay type: biochemical
T1 construct: purchased SignalChem
How it was run: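 Recombinant human EGFR d746-750/C797S in 13.5 mM Tris pH 7.5 with 2 mM DTT and 0.009% Tween-20. Reaction ran 60 min with 14 μM ATP, 20 mM MgCl2 and 12.5 mM MnCl2, stopped by 40 mM EDTA. IC50 in nM.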

[5] = molecular target: T2, human EGFR (L858R/C797S) (Homo sapiens, UniProt P00533, C797S/L858R); assay: Inhibitory activity against EGFR (L858R/C797S) kinase; assay type: biochemical
T2 construct: purchased SignalChem
How it was run: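 Purified recombinant human EGFR (C797S/L858R) kinase, final ATP 4 μM, 90-minute kinase reaction, otherwise per the EGFR (d746-750/C797S) protocol. IC50 (nM) determined from inhibition data.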

[6] = molecular target: T3, human EGFR (L858R/T790M/C797S) (Homo sapiens, UniProt P00533, C797S/L858R/T790M); assay: Inhibitory activity against EGFR (L858R/T790M/C797S) kinase; assay type: biochemical
T3 construct: made in house; host or cells: Sf9 insect cells, baculovirus
How it was run: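 GST-tagged cytoplasmic domain of human EGFR L858R/T790M/C797S, expressed in Sf9 insect cells via baculovirus and glutathione-purified. Kinase reaction run at 0.5 μM ATP final; IC50 (nM) determined per compound.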

[7] = molecular target: T4, human EGFR (WT) (Homo sapiens, UniProt P00533); assay: Inhibitory activity against EGFR (WT) kinase; assay type: biochemical
T4 construct: purchased Carna Biosciences Inc., Japan
How it was run: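 Purified recombinant human wild-type EGFR kinase, with ATP at 1.5 μM final. Compound inhibition of kinase activity read out and fitted to give IC50 (nM).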

[8] = molecular target: T5, human EGFR (d746-750/T790M/C797S) (Homo sapiens, UniProt P00533, C797S/DEL746-750/T790M); assay: Inhibitory activity against EGFR (d746-750/T790M/C797S) kinase; assay type: biochemical
T5 construct: made in house; host or cells: Sf9 insect cells, baculovirus
How it was run: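 GST-fused cytoplasmic domain of human EGFR d746-750/T790M/C797S (Sf9-expressed) was incubated with 250 nM biotinylated peptide, 6 μM ATP, 10 mM MgCl2 and 10 mM MnCl2 (2.5% DMSO) for 120 min at 25 °C. After an EDTA stop, phosphotyrosine was detected by Eu-PT66/SureLight APC-SA TR-FRET (665/620 nm, excitation 337 nm). Background wells received EDTA before enzyme.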

[9] = Test Example 1, Table 4, ATP 14 μM, 60 minutes
[10] = Test Example 1, Table 5, ATP 4 μM, 90 minutes
[11] = Test Example 1, Table 3, ATP 0.5 μM
[12] = Test Example 1, Table 6, ATP 1.5 μM
[13] = Test Example 1, Table 2, ATP 6 μM, 25° C., 120 minutes

pIC50 [4, 9]	pIC50 [5, 10]	pIC50 [6, 11]	pIC50 [7, 12]	pIC50 [8, 13]	Compound	other results
–	–	–	–	–	C#Cc1c(-c2cnc3ccccc3c2)c2c(N)ncnc2n1C12CCC(NC(=O)c3cnco3)(CC1)C2 [Example 47]	GI50 [1]: 33 nM; GI50 [2]: 2060 nM; GI50 [3]: 382 nM
–	–	–	–	–	C#Cc1c(-c2cnc3ccccc3c2)c2c(N)ncnc2n1C12CCC(NC(=O)N3CCOCC3)(CC1)C2 [Example 61, N-(4-(4-Amino-6-ethynyl-5-(quinolin-3-yl)-7H-pyrrolo[2,3-d]pyrimidin-7-yl)bicyclo-[2.2.1]heptan-1-yl)morpholine-4-carboxamide]	pIC50 ([4]; Test Example 3, Table 10; same procedures as 3) in Test Example 1): 9.27; pIC50 ([5]; Test Example 3, Table 11; same procedures as 4) in Test Example 1): 8.96; pIC50 ([6]; Test Example 3, Table 9; same procedures as 2) in Test Example 1): 8.80; pIC50 ([7]; Test Example 3, Table 12; same procedures as 5) in Test Example 1): 8.57; pIC50 ([8]; Test Example 3, Table 8; same procedures as 1) in Test Example 1): > 9.52
9.48	9.44	9.23	9.39	> 9.52	N-4-(4-Amino-6-ethynyl-5-(quinolin-3-yl)-7H-pyrrolo[2,3-d]pyrimidin-7-yl)bicyclo -[2.2.1]heptane-1-yl)oxazole-5-carboxamide [Example 47]	–
> 9.52	9.52	> 9.52	9.41	> 9.52	C#Cc1c(-c2cnc3ccccc3c2)c2c(N)ncnc2n1C12CCC(NC(=O)c3nccnn3)(CC1)C2 [Example 19, N-(4-(4-Amino-6-ethynyl-5-(quinolin-3-yl)-7H-pyrrolo[2,3-d]pyrimidin-7-yl)bicyclo-[2.2.1]heptan-1-yl)-1,2,4-triazine-3-carboxamide]	–
